Assay results as given in DBAASP.
In brackets after ≈: the same amount, converted by molar mass. Several values for one entry are separate records, joined by “and”; a condition that tells them apart may be missing. Equal values may be shown once.

Experiments:
Experiment in all cases: ≥ marks a high value that may be exact or a test limit, other limits are often not marked, values filed in µg/mL are converted to µM
[1] = tested on: Enterococcus faecalis 981
[2] = tested on: Candida glabrata 090902
[3] = tested on: Staphylococcus aureus ATCC 25923
[4] = tested on: Psychrobacter faecalis X29
[5] = tested on: Nocardia asteroides 201118
[6] = tested on: Pseudomonas syringae pv. tomato DC3000
[7] = tested on: Pseudomonas syringae pv. syringae DSM 10604
[8] = tested on: Staphylococcus aureus 90857
[9] = tested on: Pseudomonas corrugata DSM 7228
[10] = tested on: Xanthomonas vesicatoria DSM 50861
[11] = tested on: Pectobacterium carotovorum subsp. carotovorum DSM 30168
[12] = tested on: Clavibacter michiganensis subsp. michiganensis DSM 46294
[13] = tested on: Staphylococcus aureus RF122
[14] = tested on: Escherichia coli NCIMB 11843
[15] = tested on: Cronobacter sakazakii DPC 6440
[16] = tested on: Staphylococcus aureus Newman
[17] = tested on: Cronobacter sakazakii ATCC BAA-894
[18] = tested on: Staphylococcus aureus NCTC 8325-4
[19] = tested on: Pseudomonas fluorescens NCIMB 9046
[20] = tested on: Cronobacter sakazakii DSM 4485
[21] = tested on: Staphylococcus aureus SA113
[22] = tested on: Salmonella enterica subsp. enterica serovar Typhimurium LT2
[23] = tested on: Cronobacter muytjensii ATCC 51329
[24] = tested on: Staphylococcus aureus RN4220
[25] = tested on: Klebsiella pneumoniae NCIMB 13218
[26] = tested on: Staphylococcus aureus ATCC 9144
[27] = tested on: Escherichia coli DH5alpha
[28] = tested on: Escherichia coli ATCC 10536
[29] = tested on: Enterococcus faecalis ATCC 19433
[30] = tested on: Mycobacterium tuberculosis H37Rv
[31] = tested on: Staphylococcus aureus
[32] = tested on: Pseudomonas aeruginosa
[33] = tested on: Enterobacter cloacae 2524
[34] = tested on: Escherichia coli ATCC 25922
[35] = tested on: Klebsiella pneumoniae 913
[36] = tested on: Escherichia coli 170
[37] = tested on: Acinetobacter baumannii
[38] = tested on: Enterobacter cloacae 6780
[39] = tested on: Pseudomonas aeruginosa 4677

Question: What does the source list for `CC[C@H](C)[C@H](NC(=O)[C@@H](NC(=O)[C@H](CCCCN)NC(=O)CNC(=O)[C@H](CC(C)C)NC(=O)[C@@H](NC(=O)[C@@H]1CCCN1C(=O)[C@H](CC(C)C)NC(=O)[C@@H](N)Cc1ccccc1)C(C)C)C(C)C)C(=O)N[C@@H](CCCCN)C(=O)N[C@@H](CC(C)C)C(=O)N[C@H](C(=O)NCC(=O)NCC(=O)N[C@@H](CC(C)C)C(=O)N[C@@H](CC(C)C)C(N)=O)C(C)C` [FLPVLGKVIKLVGGLL]?
Answer: MIC [1]: 3.1 µM (≈ 5.16 µg/mL); MIC [2]: ≥ 50 µM; MIC [3]: 3.1 µM (≈ 5.16 µg/mL); MIC [4]: ≥ 50 µM; MIC [5]: 3.1 µM (≈ 5.16 µg/mL)

Question: With `CC[C@H](C)[C@H](NC(=O)[C@H](CC(C)C)NC(=O)[C@H](CCCN=C(N)N)NC(=O)[C@H](CCCCN)NC(=O)[C@@H](NC(=O)[C@@H](NC(=O)[C@H](CCCCN)NC(=O)[C@@H](NC(=O)[C@H](CCCCN)NC(=O)[C@H](CCCCN)NC(=O)[C@H](CCCCN)NC(=O)[C@@H](N)CCCN=C(N)N)[C@@H](C)CC)[C@@H](C)CC)[C@@H](C)CC)C(N)=O` [RKKKIKIIKRLI] as the compound, how does the MIC [6] read?
Answer: The MIC was 6.51 µM (≈ 9.99 µg/mL).

Question: What about the MIC [7] of the same compound?
Answer: The MIC was 0.163 µM (≈ 0.25 µg/mL).

Question: What about the MIC [8] of the same compound?
Answer: The MIC was ≥ 62.5 µM.

Question: And the MIC [9]?
Answer: Its MIC is 1.63 µM (≈ 2.5 µg/mL).

Question: What about the MIC [10] of the same compound?
Answer: Its MIC is 1.63 µM (≈ 2.5 µg/mL).

Question: What about the MIC [11] of the same compound?
Answer: The MIC was 6.51 µM (≈ 9.99 µg/mL).

Question: And the MIC [12]?
Answer: The MIC was 3.25 µM (≈ 5 µg/mL).

Question: What does the source list for `CC(C)C[C@H](NC(=O)[C@H](CC(C)C)NC(=O)[C@H](CC(N)=O)NC(=O)[C@H](CCC(=O)O)NC(=O)[C@H](CC(N)=O)NC(=O)[C@H](C)NC(=O)[C@@H](N)C(C)C)C(=O)N[C@@H](CCCN=C(N)N)C(=O)O` [VANENLLR]?
Answer: MIC [13]: ≥ 2500 µM; MIC [14]: ≥ 2500 µM; MIC [15]: ≥ 1250 µM; MIC [16]: ≥ 2500 µM; MIC [17]: ≥ 2500 µM; MIC [18]: ≥ 1250 µM; MIC [19]: ≥ 2500 µM; MIC [20]: ≥ 1250 µM; MIC [21]: ≥ 2500 µM; MIC [22]: ≥ 2500 µM; MIC [23]: ≥ 1250 µM; MIC [24]: ≥ 2500 µM; MIC [25]: ≥ 2500 µM

Question: For `CC[C@H](C)[C@H](NC(=O)[C@H](CC(C)C)NC(=O)[C@H](CCCCN)NC(=O)[C@@H](NC(=O)[C@@H](NC(=O)[C@H](CC(C)C)NC(=O)[C@H](CCCCN)NC(=O)[C@H](CC(C)C)NC(=O)[C@@H](NC(=O)[C@H](CCCCN)NC(=O)[C@@H](NC(=O)[C@H](CC(C)C)NC(=O)[C@H](CCCCN)NC(=O)[C@H](CCCN=C(N)N)NC(=O)[C@H](CCCN=C(N)N)NC(=O)[C@@H](N)CCCCN)[C@@H](C)CC)[C@@H](C)CC)[C@@H](C)CC)[C@@H](C)CC)C(=O)N[C@@H](CCCN=C(N)N)C(=O)N[C@@H](CCCCN)C(=O)N[C@@H](CCCCN)C(=O)N[C@@H](CCCN=C(N)N)C(N)=O` [KRRKLIKILKLIIKLIRKKR], which MIC [6] is on record?
Answer: The MIC was 0.977 µM (≈ 2.5 µg/mL).

Question: And the MIC [7]?
Answer: Its MIC is 0.391 µM (≈ 1 µg/mL).

Question: What about the MIC [8] of the same compound?
Answer: The MIC was 2 µM (≈ 5.11 µg/mL).

Question: What about the MIC [9] of the same compound?
Answer: The MIC was 0.977 µM (≈ 2.5 µg/mL).

Question: What about the MIC [10] of the same compound?
Answer: The MIC was 0.0391 µM (≈ 0.1 µg/mL).

Question: What about the MIC [11] of the same compound?
Answer: Its MIC is 3.91 µM (≈ 10 µg/mL).

Question: What about the MIC [12] of the same compound?
Answer: Its MIC is 0.0391 µM (≈ 0.1 µg/mL).

Question: `CC[C@H](C)[C@H](NC(=O)[C@@H](NC(=O)[C@@H]1CCCN1C(=O)[C@H](CO)NC(=O)[C@H](C)NC(=O)[C@H](CCCCN)NC(=O)[C@H](CCCCN)NC(=O)[C@H](Cc1ccccc1)NC(=O)[C@H](C)NC(=O)[C@H](CCCCN)NC(=O)[C@H](CCCCN)NC(=O)[C@H](Cc1ccccc1)NC(=O)[C@H](CCCCN)NC(=O)[C@H](CCCCN)NC(=O)[C@H](CCCN=C(N)N)NC(=O)[C@H](Cc1ccccc1)NC(=O)[C@H](CCCN=C(N)N)NC(=O)[C@H](CCCCN)NC(=O)[C@H](Cc1ccccc1)NC(=O)[C@H](CCCN=C(N)N)NC(=O)CN)C(C)C)C(=O)N1CCC[C@H]1C(=O)N[C@@H](CC(C)C)C(=O)N[C@@H](CC(C)C)C(=O)N[C@@H](Cc1cnc[nH]1)C(=O)N[C@@H](CC(C)C)C(N)=O` [GRFKRFRKKFKKAFKKASPVIPLLHL] was tested. Which MIC [26] did it give?
Answer: The MIC was 2.7 µM (≈ 8.48 µg/mL).

Question: And the MIC [27]?
Answer: Its MIC is 2.9 µM (≈ 9.11 µg/mL).

Question: What about the MIC [28] of the same compound?
Answer: The MIC was 2.7 µM and 7.2 µM.

Question: Which MIC [29] does the source give for `CC[C@H](C)[C@H](NC(=O)[C@H](CCCN=C(N)N)NC(=O)[C@H](Cc1c[nH]c2ccccc12)NC(=O)[C@@H](NC(=O)[C@@H](NC(=O)[C@H](CC(C)C)NC(=O)[C@H](Cc1c[nH]c2ccccc12)NC(=O)[C@H](CCCN=C(N)N)NC(=O)[C@H](CCC(N)=O)NC(=O)[C@@H](N)C(C)C)[C@@H](C)CC)C(C)C)C(=O)N[C@@H](CCCN=C(N)N)C(=O)N[C@@H](CCCCN)C(N)=O` [VQRWLIVWRIRK] here?
Answer: The MIC was ≥ 38.7 µM.

Question: And the MIC [30]?
Answer: The MIC was 17.7 µM (≈ 29.3 µg/mL).

Question: And the MIC [31]?
Answer: Its MIC is 3.02 µM (≈ 5 µg/mL).

Question: What about the MIC [3] of the same compound?
Answer: The MIC was 77.4 µM (≈ 128 µg/mL).

Question: And the MIC [32]?
Answer: The MIC was 11.5 µM (≈ 19 µg/mL).

Question: How did the MIC [33] turn out when `CC(C)C[C@H](NC(=O)[C@H](CCCCN)NC(=O)[C@H](CCC(N)=O)NC(=O)[C@@H](NC(=O)[C@@H](NC(=O)[C@H](CC(N)=O)NC(=O)[C@H](C)NC(=O)[C@@H](NC(=O)[C@@H](N)CCCCN)C(C)C)[C@@H](C)O)C(C)C)C(=O)N[C@@H](CCCCN)C(=O)N[C@@H](CCCN=C(N)N)C(=O)N[C@@H](CCCCN)C(=O)N[C@@H](C)C(=O)N[C@@H](CCCCN)C(=O)N[C@@H](CC(N)=O)C(=O)N[C@@H](C)C(=O)N[C@H](C(=O)N[C@@H](C)C(=O)O)C(C)C` [KVANTVQKLKRKAKNAVA] was run?
Answer: Its MIC is 12.5 µM (≈ 24.6 µg/mL).

Question: What about the MIC [34] of the same compound?
Answer: The MIC was > 50 µM.

Question: And the MIC [35]?
Answer: Its MIC is ≥ 50 µM.

Question: What about the MIC [36] of the same compound?
Answer: Its MIC is ≥ 50 µM.

Question: What about the MIC [37] of the same compound?
Answer: The MIC was ≥ 50 µM.

Question: And the MIC [38]?
Answer: The MIC was ≥ 50 µM.

Question: What about the MIC [39] of the same compound?
Answer: Its MIC is ≥ 50 µM.

Question: With `CC[C@H](C)[C@H](N)C(=O)N[C@@H](CCCCN)C(=O)N[C@@H](Cc1cnc[nH]1)C(=O)N[C@@H](CCC(N)=O)C(=O)NCC(=O)N[C@@H](CC(C)C)C(=O)N1CCC[C@H]1C(=O)N[C@@H](CCC(N)=O)C(=O)N[C@@H](CCC(=O)O)C(=O)N[C@@H](CCC(=O)O)C(=O)O` [IKHQGLPQEE] as the compound, how does the MIC [13] read?
Answer: The MIC was ≥ 2500 µM.

Question: What about the MIC [14] of the same compound?
Answer: The MIC was ≥ 2500 µM.

Question: And the MIC [15]?
Answer: Its MIC is ≥ 2500 µM.

Question: What about the MIC [16] of the same compound?
Answer: The MIC was ≥ 2500 µM.

Question: And the MIC [17]?
Answer: The MIC was ≥ 2500 µM.

Question: And the MIC [18]?
Answer: Its MIC is ≥ 2500 µM.

Question: And the MIC [19]?
Answer: The MIC was ≥ 2500 µM.

Question: And the MIC [20]?
Answer: The MIC was ≥ 2500 µM.

Question: What about the MIC [21] of the same compound?
Answer: Its MIC is ≥ 2500 µM.

Question: What about the MIC [22] of the same compound?
Answer: The MIC was ≥ 2500 µM.

Question: What about the MIC [23] of the same compound?
Answer: The MIC was ≥ 2500 µM.

Question: What about the MIC [24] of the same compound?
Answer: The MIC was ≥ 2500 µM.

Question: What about the MIC [25] of the same compound?
Answer: Its MIC is ≥ 2500 µM.
